In ChEMBL document CHEMBL5465560, “Selectivity Literature for EUbOPEN Chemogenomic Library” (2024):

Assays:
[1] = biological target: T1, Phosphatidylinositol 5-phosphate 4-kinase type-2 gamma (Homo sapiens) (UniProt Q8TBX8); assay: Selectivity interaction (KinomeScan (DiscoverX)) EUB0001550a PIP4K2C; settings: at 1 µM
T1 sequence (whole entry): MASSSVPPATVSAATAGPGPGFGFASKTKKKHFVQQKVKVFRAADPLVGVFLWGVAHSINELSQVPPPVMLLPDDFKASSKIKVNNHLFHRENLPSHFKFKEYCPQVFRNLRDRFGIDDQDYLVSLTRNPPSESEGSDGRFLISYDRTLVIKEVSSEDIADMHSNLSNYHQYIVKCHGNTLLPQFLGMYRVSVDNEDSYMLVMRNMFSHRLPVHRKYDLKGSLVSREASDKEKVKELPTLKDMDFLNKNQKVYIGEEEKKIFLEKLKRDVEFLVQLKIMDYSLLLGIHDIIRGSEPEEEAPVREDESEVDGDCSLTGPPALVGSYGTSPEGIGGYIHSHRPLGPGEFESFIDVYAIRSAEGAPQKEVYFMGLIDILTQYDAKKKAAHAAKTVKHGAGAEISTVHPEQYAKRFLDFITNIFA

[2] = biological target: Glycogen synthase kinase-3 alpha (Homo sapiens, UniProt P49840); assay: Selectivity interaction (Upstate Kinase Profiler service (Millipore)) EUB0000056c GSK3A; settings: at 1 µM
[3] = biological target: T2, Serine/threonine-protein kinase ICK (Homo sapiens) (UniProt Q9UPZ9); assay: Selectivity interaction (KinomeScan (DiscoverX)) EUB0001079a ICK; settings: at 1 µM
T2 sequence (whole entry): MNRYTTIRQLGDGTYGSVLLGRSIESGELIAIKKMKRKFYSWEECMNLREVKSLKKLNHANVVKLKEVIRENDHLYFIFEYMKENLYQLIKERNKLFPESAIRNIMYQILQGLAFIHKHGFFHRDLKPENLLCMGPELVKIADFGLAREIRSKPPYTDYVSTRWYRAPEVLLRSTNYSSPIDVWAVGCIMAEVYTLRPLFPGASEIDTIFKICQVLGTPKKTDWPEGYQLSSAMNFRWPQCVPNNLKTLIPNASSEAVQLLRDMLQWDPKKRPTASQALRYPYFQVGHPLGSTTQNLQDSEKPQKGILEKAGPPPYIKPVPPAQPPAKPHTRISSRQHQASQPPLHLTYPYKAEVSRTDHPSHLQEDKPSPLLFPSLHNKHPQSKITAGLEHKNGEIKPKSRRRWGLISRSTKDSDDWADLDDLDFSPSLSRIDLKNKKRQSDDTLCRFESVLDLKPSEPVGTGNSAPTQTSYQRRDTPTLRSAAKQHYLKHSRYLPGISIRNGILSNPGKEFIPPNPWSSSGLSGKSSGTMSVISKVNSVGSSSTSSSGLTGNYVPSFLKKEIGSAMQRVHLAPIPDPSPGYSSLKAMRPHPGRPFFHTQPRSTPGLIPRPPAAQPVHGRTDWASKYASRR

[4] = biological target: Mitogen-activated protein kinase 4 (Homo sapiens) (UniProt P31152); assay: Selectivity interaction (KinomeScan (DiscoverX)) EUB0001079a MAPK4; settings: at 1 µM
[5] = biological target: Phosphorylase b kinase gamma catalytic chain, skeletal muscle/heart isoform (Homo sapiens) (UniProt Q16816); assay: Selectivity interaction (KinomeScan (DiscoverX)) EUB0001079a PHKG1; settings: at 1 µM
[6] = biological target: Interferon-induced, double-stranded RNA-activated protein kinase (Homo sapiens) (UniProt P19525); assay: Selectivity interaction (LanthaScreen Eu Kinase Binding Assay) EUB0001632a EIF2AK2; settings: at 10 µM
[7] = biological target: Serine/threonine-protein kinase 10 (Homo sapiens) (UniProt O94804); assay: Selectivity interaction (ActivX KiNativ screen (kinase selectivity in THP-1 cell lysates)) EUB0000639a STK10; assay type: subcellular; settings: lysate, at 5 µM
[8] = biological target: T3, Tyrosine-protein kinase Tec (Homo sapiens) (UniProt P42680); assay: Selectivity interaction (ActivX KiNativ screen (kinase selectivity in THP-1 cell lysates)) EUB0000639a TEC; assay type: subcellular; settings: lysate, at 1 µM
T3 sequence (whole entry): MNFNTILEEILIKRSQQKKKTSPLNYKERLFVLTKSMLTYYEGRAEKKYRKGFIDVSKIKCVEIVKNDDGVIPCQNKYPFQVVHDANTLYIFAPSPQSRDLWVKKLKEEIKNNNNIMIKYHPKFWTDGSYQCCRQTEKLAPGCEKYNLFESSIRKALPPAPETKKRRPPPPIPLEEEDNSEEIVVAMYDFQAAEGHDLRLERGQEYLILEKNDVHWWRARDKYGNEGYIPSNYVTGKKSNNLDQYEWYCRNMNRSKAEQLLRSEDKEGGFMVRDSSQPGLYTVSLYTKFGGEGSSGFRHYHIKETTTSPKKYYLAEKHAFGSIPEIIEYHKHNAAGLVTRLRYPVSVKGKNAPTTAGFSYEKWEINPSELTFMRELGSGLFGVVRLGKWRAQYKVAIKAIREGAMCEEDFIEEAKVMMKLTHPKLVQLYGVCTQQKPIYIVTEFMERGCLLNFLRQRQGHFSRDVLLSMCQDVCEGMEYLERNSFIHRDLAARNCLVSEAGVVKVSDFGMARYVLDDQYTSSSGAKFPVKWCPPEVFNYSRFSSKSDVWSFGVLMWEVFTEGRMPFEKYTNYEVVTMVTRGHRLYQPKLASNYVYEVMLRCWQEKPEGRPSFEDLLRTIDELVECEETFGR

[9] = biological target: T4, Histone-lysine N-methyltransferase SMYD3 (Homo sapiens) (UniProt Q9H7B4); assay: Selectivity interaction (Methyltransferase screen (radiometric assays, panel of 8 PRMTs, 21 protein lysine methyltransferases, 3 DNA methyltransferases, and one RNA methyltransferase)) EUB0000271b SMYD3
T4 sequence (whole entry): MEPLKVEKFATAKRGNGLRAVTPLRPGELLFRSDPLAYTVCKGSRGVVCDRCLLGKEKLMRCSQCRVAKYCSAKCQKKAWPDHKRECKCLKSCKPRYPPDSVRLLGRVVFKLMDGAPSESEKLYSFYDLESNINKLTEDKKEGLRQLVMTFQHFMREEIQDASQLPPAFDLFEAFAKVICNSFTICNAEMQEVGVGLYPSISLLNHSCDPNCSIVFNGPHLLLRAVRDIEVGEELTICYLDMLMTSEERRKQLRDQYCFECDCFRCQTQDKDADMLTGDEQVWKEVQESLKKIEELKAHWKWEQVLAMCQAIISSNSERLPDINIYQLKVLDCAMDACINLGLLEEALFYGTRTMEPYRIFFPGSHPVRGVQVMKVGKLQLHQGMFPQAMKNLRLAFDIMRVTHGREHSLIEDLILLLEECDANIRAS

[10] = tested on: Epidermal growth factor receptor (Homo sapiens), P00533 [UNDEFINED MUTATION]; assay: Selectivity interaction (KinomeScan (DiscoverX)) EUB0000045b EGFR; settings: at 1 µM
Focal adhesion kinase 1 = Focal adhesion kinase 1 (Homo sapiens, UniProt Q05397); assay: Selectivity interaction (KinomeScan (DiscoverX)) EUB0000618a PTK2; settings: at 10 µM
[11] = biological target: Tyrosine-protein kinase FRK (Homo sapiens) (UniProt P42685); assay: Selectivity interaction (KinomeScan (DiscoverX)) EUB0001619a FRK; settings: at 1 µM
Sequence of Tyrosine-protein kinase FRK (Homo sapiens) (P42685 whole entry): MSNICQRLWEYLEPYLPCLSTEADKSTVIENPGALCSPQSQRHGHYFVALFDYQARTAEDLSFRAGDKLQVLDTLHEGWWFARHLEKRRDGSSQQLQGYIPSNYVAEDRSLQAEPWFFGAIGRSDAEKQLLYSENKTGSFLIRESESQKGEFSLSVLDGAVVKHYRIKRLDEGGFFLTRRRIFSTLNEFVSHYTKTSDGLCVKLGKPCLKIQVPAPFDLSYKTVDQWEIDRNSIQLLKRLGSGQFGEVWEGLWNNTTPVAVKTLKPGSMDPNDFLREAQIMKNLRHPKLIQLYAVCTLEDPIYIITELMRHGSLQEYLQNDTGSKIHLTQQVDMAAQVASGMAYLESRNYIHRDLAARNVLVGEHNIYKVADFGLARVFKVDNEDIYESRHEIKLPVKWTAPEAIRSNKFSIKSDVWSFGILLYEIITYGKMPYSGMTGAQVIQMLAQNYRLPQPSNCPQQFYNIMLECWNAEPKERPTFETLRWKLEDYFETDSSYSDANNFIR

Sequence of Interferon-induced, double-stranded RNA-activated protein kinase (Homo sapiens) (P19525 whole entry): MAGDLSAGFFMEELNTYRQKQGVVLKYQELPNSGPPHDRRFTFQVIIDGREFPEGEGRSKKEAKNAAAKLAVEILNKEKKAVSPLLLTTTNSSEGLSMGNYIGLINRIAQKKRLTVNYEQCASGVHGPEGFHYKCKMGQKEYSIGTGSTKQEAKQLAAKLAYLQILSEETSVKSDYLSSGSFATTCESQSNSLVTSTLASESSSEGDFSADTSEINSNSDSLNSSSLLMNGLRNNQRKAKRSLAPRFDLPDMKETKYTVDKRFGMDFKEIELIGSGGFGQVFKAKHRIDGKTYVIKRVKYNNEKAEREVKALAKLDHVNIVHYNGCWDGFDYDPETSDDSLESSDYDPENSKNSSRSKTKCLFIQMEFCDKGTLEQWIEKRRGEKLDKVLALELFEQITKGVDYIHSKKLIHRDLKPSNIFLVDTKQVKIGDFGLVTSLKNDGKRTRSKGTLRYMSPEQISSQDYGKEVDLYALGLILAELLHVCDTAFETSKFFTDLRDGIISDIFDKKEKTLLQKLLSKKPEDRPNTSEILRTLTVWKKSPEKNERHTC
Sequence of Serine/threonine-protein kinase 10 (Homo sapiens) (O94804 whole entry, looked up): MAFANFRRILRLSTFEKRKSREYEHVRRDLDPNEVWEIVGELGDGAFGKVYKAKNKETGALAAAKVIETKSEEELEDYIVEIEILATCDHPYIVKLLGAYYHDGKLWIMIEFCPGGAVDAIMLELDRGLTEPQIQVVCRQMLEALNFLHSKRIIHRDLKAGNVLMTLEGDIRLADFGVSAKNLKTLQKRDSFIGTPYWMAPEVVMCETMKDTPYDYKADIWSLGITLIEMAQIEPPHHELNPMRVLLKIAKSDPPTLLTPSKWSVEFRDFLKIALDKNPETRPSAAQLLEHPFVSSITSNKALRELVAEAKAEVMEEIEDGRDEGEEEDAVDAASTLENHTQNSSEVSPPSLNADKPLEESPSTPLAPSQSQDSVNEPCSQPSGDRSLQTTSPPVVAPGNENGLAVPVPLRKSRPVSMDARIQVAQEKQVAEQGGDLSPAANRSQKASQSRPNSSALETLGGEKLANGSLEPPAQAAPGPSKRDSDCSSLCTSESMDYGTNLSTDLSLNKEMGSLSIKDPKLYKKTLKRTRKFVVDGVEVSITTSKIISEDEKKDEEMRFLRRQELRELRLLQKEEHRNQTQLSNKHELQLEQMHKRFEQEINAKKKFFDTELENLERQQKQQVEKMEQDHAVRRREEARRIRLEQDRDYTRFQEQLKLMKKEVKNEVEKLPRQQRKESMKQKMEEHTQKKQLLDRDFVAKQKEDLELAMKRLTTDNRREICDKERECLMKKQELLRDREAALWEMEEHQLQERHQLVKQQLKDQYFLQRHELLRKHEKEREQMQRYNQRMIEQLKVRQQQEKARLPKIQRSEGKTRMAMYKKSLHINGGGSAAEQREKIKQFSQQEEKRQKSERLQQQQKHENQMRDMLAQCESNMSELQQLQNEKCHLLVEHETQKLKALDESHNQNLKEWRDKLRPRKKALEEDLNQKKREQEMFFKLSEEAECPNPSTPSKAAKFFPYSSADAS
Sequence of Phosphorylase b kinase gamma catalytic chain, skeletal muscle/heart isoform (Homo sapiens) (Q16816 whole entry, looked up, canonical isoform): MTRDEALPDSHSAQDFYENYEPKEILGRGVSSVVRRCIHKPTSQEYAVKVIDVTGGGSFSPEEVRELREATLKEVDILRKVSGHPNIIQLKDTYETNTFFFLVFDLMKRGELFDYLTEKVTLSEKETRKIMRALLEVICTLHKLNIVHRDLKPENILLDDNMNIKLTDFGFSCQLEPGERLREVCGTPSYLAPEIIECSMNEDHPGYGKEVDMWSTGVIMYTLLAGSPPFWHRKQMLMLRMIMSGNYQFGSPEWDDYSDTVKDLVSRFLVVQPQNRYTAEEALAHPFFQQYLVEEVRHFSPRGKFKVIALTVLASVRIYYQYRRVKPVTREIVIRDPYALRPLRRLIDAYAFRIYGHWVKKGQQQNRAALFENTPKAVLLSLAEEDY
Sequence of Focal adhesion kinase 1 (Q05397 2-1052 limits assumed): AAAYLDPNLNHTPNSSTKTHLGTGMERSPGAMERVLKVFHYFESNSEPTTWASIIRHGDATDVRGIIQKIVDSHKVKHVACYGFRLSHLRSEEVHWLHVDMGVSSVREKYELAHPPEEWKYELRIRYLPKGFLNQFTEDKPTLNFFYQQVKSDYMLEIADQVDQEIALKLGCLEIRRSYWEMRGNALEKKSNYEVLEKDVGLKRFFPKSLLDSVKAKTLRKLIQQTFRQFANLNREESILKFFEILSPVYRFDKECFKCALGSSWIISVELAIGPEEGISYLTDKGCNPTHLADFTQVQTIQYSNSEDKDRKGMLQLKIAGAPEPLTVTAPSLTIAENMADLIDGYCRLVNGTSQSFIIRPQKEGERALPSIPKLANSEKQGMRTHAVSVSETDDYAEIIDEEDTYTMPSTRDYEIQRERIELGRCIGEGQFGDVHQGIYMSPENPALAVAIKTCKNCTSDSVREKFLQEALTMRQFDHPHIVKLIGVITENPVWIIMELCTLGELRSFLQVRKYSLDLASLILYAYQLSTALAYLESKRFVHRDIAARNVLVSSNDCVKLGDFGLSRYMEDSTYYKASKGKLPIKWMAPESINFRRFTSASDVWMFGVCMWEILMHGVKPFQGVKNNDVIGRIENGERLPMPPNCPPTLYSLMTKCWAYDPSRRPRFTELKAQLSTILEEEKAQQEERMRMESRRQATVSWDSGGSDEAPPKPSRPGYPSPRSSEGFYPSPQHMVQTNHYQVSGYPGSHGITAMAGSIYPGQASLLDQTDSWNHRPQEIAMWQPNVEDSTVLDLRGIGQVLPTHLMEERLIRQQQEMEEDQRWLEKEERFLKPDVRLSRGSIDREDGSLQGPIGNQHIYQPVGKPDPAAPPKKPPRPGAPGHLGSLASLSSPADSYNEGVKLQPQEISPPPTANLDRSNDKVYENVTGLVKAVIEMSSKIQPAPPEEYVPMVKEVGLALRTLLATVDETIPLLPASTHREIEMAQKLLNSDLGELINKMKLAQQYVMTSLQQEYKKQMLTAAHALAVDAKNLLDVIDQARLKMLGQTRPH
Sequence of Mitogen-activated protein kinase 4 (Homo sapiens) (P31152 whole entry, canonical isoform): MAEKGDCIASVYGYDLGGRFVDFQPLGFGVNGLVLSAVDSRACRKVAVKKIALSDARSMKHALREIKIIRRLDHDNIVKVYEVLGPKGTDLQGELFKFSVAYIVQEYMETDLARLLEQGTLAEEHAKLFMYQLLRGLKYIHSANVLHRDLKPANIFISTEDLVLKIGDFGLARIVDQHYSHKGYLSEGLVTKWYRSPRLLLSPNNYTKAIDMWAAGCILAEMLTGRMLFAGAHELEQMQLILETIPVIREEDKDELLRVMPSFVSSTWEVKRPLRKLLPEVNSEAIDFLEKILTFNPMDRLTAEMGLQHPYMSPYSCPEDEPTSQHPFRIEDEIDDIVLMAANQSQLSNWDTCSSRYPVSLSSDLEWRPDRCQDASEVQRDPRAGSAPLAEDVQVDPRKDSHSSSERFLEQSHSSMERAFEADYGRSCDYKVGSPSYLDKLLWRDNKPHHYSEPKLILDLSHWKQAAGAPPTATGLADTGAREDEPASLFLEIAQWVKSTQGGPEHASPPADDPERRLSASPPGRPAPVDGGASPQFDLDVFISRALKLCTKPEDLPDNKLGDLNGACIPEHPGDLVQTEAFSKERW
Sequence of Glycogen synthase kinase-3 alpha (P49840 2-483 limits assumed): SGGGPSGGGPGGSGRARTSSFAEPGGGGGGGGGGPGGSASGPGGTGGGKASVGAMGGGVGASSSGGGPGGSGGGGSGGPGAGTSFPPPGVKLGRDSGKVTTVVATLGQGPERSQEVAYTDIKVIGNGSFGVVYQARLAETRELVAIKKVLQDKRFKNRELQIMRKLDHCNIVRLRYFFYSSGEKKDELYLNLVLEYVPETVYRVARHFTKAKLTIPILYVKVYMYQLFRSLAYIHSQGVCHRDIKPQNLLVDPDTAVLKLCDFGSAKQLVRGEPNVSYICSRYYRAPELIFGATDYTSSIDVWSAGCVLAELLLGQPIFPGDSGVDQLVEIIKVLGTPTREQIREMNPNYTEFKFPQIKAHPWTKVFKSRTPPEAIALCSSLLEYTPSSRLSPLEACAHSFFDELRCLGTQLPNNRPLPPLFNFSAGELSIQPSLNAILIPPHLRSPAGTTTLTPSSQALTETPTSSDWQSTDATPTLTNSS

Q: `CN(C)CC#Cc1ccc2[nH]c3c(c2c1)-c1nc(N)ncc1CCC3` was tested. Which % of control [1] did it give?
A: The % of control was 53%.

Q: Which % of inhibition [2] does the source give for `Cc1ccc(-c2ccc3c(ccc4sc5c(c43)NC[C@@H](C)NC5=O)n2)cn1` here?
A: Its % of inhibition is 2%.

Q: Which % of control [3] does the source give for `Nc1cnc(N2CCc3cc(S(=O)(=O)Nc4c(F)cc(Cl)cc4F)cc(N4CCCC4=O)c32)nc1` [TP-020n] here?
A: The % of control was 80%.

Q: And the % of control [4]?
A: Its % of control is 100%.

Q: What about the % of control [5] of the same molecule?
A: The % of control was 71%.

Q: How did the % of inhibition [6] turn out when `Cn1cc(-n2cnc3c(NCc4nc5cc(Cl)c(Cl)cc5[nH]4)nc(N4CCOCC4)nc32)cn1` was run?
A: Its % of inhibition is -80.6%.

Q: With `CC[C@@H]1[C@H](F)C(=O)N[C@@H]1COc1nccc2cc(C(N)=O)c(OC)cc12` [ZIMLOVISERTIB] as the molecule, how does the % of inhibition [7] read?
A: Its % of inhibition is -21.8%.

Q: What about the % of inhibition [8] of the same molecule?
A: The % of inhibition was -60.5%.

Q: Which % of activity ([9]; at 1 µM) does the source give for `Cc1cc(C)cc([C@@H]2c3cc(C)ccc3NC(=O)CN2C(=O)c2ccc(Br)s2)c1` here?
A: Its % of activity is 100%.

Q: What about the % of activity ([9]; at 10 µM) of the same molecule?
A: The % of activity was 98.3%.

Q: Which % of control [10] does the source give for `C=CC(=O)Nc1cc(-n2c(=O)ccc3cnc4ccc(-c5ccc(NS(C)(=O)=O)cc5)cc4c32)ccc1C` here?
A: Its % of control is 66%.

Q: For `O[C@H]1CC[C@H](Nc2ncc3nc(Nc4c(F)cc(F)cc4F)n([C@H]4CCOC4)c3n2)CC1`, which % of control (Focal adhesion kinase 1) is on record?
A: The % of control was 100%.

Q: How did the % of control [11] turn out when `N#Cc1cccc(-c2c[nH]c3ncnc(N4CCOCC4)c23)c1` was run?
A: The % of control was 88%.
